Here are results for 35 molecules from US7420056B2, “Substituted bicyclic imidazo-3-ylamine compounds” (Gruenenthal GmbH, priority 2004, dated 2008).

As a reminder, the pIC50 is the IC50 on a negative log10 scale, so that one unit is a factor of ten.

Molecules are shown by their SMILES. pIC50: −log10 of the molar value. Structures can show the parent of a compound that is named as a salt.

Chain of mGluR5 receptor (I3LUI7 19-1212): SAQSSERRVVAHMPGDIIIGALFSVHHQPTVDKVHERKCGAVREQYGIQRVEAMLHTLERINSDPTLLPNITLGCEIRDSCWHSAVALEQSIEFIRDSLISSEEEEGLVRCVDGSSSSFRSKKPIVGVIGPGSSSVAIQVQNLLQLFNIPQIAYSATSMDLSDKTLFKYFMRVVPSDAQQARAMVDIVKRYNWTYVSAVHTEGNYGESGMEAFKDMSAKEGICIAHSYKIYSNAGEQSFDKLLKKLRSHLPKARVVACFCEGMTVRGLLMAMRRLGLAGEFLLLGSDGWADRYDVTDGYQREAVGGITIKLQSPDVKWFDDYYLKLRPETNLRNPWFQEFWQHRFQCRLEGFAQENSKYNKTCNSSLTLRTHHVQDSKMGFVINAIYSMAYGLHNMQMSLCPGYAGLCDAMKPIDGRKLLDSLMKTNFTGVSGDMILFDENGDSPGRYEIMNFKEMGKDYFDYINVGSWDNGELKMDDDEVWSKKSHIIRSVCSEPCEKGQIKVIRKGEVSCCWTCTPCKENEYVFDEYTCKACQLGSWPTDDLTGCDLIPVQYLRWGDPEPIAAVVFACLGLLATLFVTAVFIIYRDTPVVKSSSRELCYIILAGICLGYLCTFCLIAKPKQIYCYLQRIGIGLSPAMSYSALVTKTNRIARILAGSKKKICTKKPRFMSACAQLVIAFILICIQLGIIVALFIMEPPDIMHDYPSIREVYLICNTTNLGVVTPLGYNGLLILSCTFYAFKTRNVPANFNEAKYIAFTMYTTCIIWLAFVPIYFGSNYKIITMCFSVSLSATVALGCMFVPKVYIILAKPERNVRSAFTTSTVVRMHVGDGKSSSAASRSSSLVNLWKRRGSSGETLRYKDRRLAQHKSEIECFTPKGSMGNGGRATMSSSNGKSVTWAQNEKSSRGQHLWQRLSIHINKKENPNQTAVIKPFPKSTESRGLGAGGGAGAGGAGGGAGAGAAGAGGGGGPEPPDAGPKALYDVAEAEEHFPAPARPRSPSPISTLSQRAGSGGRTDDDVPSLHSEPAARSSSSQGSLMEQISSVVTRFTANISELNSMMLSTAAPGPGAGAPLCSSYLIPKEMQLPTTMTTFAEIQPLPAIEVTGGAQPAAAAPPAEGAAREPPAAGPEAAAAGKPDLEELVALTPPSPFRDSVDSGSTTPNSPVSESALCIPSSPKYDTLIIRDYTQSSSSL

In one assay the target is mGluR5 receptor (Sus scrofa, UniProt I3LUI7). The assay can be described thus: Affinity for the mGluR5 receptor: inhibition of 3[H]-MPEP binding in pig brain homogenate. Particulars: 10 μM compound, 5 nM 3[H]-MPEP, read-out: mGluR5 receptor inhibition of ^3[H]-MPEP binding [10 μM] in % at a concentration of the example compounds of 10 μM. An outline of the steps:
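Test compounds were screened at 10 μM for displacement of 5 nM [3H]-MPEP from pig brain homogenate (450 μg protein, pH 8.0 Hepes buffer) over 60 min at room temperature. After filtration, scintillation counting gave the read-out. 10 μM unlabelled MPEP set nonspecific binding.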
With `CC(C)(C)CC(C)(C)Nc1c(-c2ccc(C#Cc3ccccn3)s2)nc2ncccn12` [Example 253, 2-(5-(pyridin-2-ylethynyl)thiophen-2-yl)-N-(2,4,4-trimethylpentan-2-yl)imidazo[1,2-a]pyrimidin-3-amine], the inhibition at 10 µM came out at 73%.

For the molecule `Cc1ccc2nc(-c3ccc(C#Cc4ccccc4)nc3C)c(NC(C)(C)CC(C)(C)C)n2c1` [Example 271, 6-methyl-2-(2-methyl-6-(phenylethynyl)pyridin-3-yl)-N-(2,4,4-trimethylpentan-2-yl)imidazo[1,2-a]pyridin-3-amine], the inhibition at 10 µM worked out at 31%.

Consider `Cc1nc(C#Cc2ccccc2)ccc1-c1nc2cnccn2c1NC1CCCC1` [Example 243, N-cyclopentyl-2-(2-methyl-6-(phenylethynyl)pyridin-3-yl)imidazo[1,2-a]pyrazin-3-amine], for which the inhibition at 10 µM was found to be 80%.

Take `Clc1ccccc1CNc1c(-c2ccc(C#Cc3ccccc3)s2)nc2ccccn12` [Example 39, (2-chloro-benzyl)-[2-(5-phenylethynyl-thiophen-2-yl)-imidazo[1,2-a]pyridin-3-yl]-amine]: the inhibition at 10 µM turned out to be 72%.

For `Cc1cc(Br)c2nc(-c3ccc(C#Cc4ccccn4)o3)c(NC3CCCCC3)n2c1` [Example 215, 8-bromo-N-cyclohexyl-6-methyl-2-(5-(pyridin-2-ylethynyl)furan-2-yl)imidazo[1,2-a]pyridin-3-amine], the inhibition at 10 µM came out at 51%.

For the molecule `COc1cccc(CNc2c(-c3ccc(C#Cc4ccccc4)s3)nc3nc(C)ccn23)c1` [Example 47, (3-methoxy-benzyl)-[7-methyl-2-(5-phenylethynyl-thiophen-2-yl)-imidazo[1,2-a]pyrimidin-3-yl]-amine], the inhibition at 10 µM came out at 79%.

`C(#Cc1csc(-c2nc3cnccn3c2NCCc2ccccc2)c1)c1ccccc1` [Example 201, N-phenethyl-2-(4-(phenylethynyl)thiophen-2-yl)imidazo[1,2-a]pyrazin-3-amine]: the inhibition at 10 µM is 55%.

For `CCCc1ccn2c(Nc3ccco3)c(-c3ccc(C#Cc4ccccc4)o3)nc2c1` [Example 225, N-(furan-2-yl)-2-(5-(phenylethynyl)furan-2-yl)-7-propylimidazo[1,2-a]pyridin-3-amine], the inhibition at 10 µM was found to be 43%.

As to `Cc1cccn2c(Nc3ccco3)c(-c3ccc(C#Cc4ccccc4)o3)nc12` [Example 223, N-(furan-2-yl)-8-methyl-2-(5-(phenylethynyl)furan-2-yl)imidazo[1,2-a]pyridin-3-amine], the inhibition at 10 µM is 80%.

As for `COc1ccc(CNc2c(-c3ccc(C#Cc4ccccc4)s3)nc3cc(C)ccn23)cc1` [Example 12, (4-methoxy-benzyl)-[7-methyl-2-(5-phenylethynyl-thiophen-2-yl)-imidazo[1,2-a]pyridin-3-yl]-amine], the inhibition at 10 µM came to 96%.

Consider `CC(C)(C)CC(C)(C)Nc1c(-c2ccc(C#Cc3ccccc3)s2)nc2cnccn12` [Example 56, [2-(5-phenylethynyl-thiophen-2-yl)-imidazo[1,2-a]pyrazin-3-yl]-(1,1,3,3-tetramethyl-butyl)-amine], for which the inhibition at 10 µM came out at 100%.

For the molecule `Cc1cccc(C#Cc2cccc(-c3nc4cccc(C)n4c3NC(C)(C)CC(C)(C)C)c2)n1` [Example 291, 5-methyl-2-(3-((6-methylpyridin-2-yl)ethynyl)phenyl)-N-(2,4,4-trimethylpentan-2-yl)imidazo[1,2-a]pyridin-3-amine], the inhibition at 10 µM was found to be 92%.

As to `CCCCC(C)(C)Nc1c(-c2cc(C#Cc3ccccc3)cs2)nc2cnccn12` [Example 200, N-(2-methylhexan-2-yl)-2-(4-(phenylethynyl)thiophen-2-yl)imidazo[1,2-a]pyrazin-3-amine], the inhibition at 10 µM came out at 62%.

As for `C(#Cc1ccc(-c2nc3ccccn3c2Nc2ccco2)o1)c1ccccc1` [Example 224, N-(furan-2-yl)-2-(5-(phenylethynyl)furan-2-yl)imidazo[1,2-a]pyridin-3-amine], the inhibition at 10 µM stood at 69%.

With `COc1cccc(Nc2c(-c3ccc(C#Cc4ccccc4)s3)nc3ccc(C)cn23)c1` [Example 41, (3-methoxy-phenyl)-[6-methyl-2-(5-phenylethynyl-thiophen-2-yl)-imidazo[1,2-a]pyridin-3-yl]-amine], the inhibition at 10 µM amounted to 73%.

Regarding `Cc1ccn2c(Nc3ccc(F)cc3)c(-c3cccc(C#Cc4ccccn4)c3)nc2c1` [Example 277, N-(4-fluorophenyl)-7-methyl-2-(3-(pyridin-2-ylethynyl)phenyl)imidazo[1,2-a]pyridin-3-amine], the inhibition at 10 µM came to 95%.

As for `Cc1cc(Br)c2nc(-c3ccc(C#Cc4ccccn4)o3)c(NC3CCCC3)n2c1` [Example 246, 8-bromo-N-cyclopentyl-6-methyl-2-(5-(pyridin-2-ylethynyl)furan-2-yl)imidazo[1,2-a]pyridin-3-amine], the inhibition at 10 µM is 74%.

As to `Cc1ccc2nc(-c3ccc(C#Cc4ccccn4)o3)c(NC3CCCC3)n2c1` [Example 272, N-cyclopentyl-6-methyl-2-(5-(pyridin-2-ylethynyl)furan-2-yl)imidazo[1,2-a]pyridin-3-amine], the inhibition at 10 µM was determined as 72%.

Consider `Cc1cccc(C)c1Nc1c(-c2cc(C#Cc3ccccc3)cs2)nc2c(C)cc(Br)cn12` [Example 237, 6-bromo-N-(2,6-dimethylphenyl)-8-methyl-2-(4-(phenylethynyl)thiophen-2-yl)imidazo[1,2-a]pyridin-3-amine], for which the inhibition at 10 µM was 36%.

In the case of `CCCC(C)(C)Nc1c(-c2cc(C#Cc3ccccc3)cs2)nc2ccccn12` [Example 209, N-(2-methylpentan-2-yl)-2-(4-(phenylethynyl)thiophen-2-yl)imidazo[1,2-a]pyridin-3-amine], the inhibition at 10 µM is 55%.

Consider `CCc1ccn2c(NC(C)(C)CC(C)(C)C)c(-c3ccc(C#Cc4ccccn4)s3)nc2c1` [Example 299, 7-ethyl-2-(5-(pyridin-2-ylethynyl)thiophen-2-yl)-N-(2,4,4-trimethylpentan-2-yl)imidazo[1,2-a]pyridin-3-amine], for which the inhibition at 10 µM turned out to be 86%.

Turning to `Cc1cc(C)n2c(NCc3ccc(Cl)cc3)c(-c3cc(C#Cc4ccccc4)cs3)nc2c1` [Example 230, N-(4-chlorobenzyl)-5,7-dimethyl-2-(4-(phenylethynyl)thiophen-2-yl)imidazo[1,2-a]pyridin-3-amine], the inhibition at 10 µM came to 60%.

Consider `COc1ccc(CNc2c(-c3ccc(C#Cc4ccccc4)s3)nc3nc(C)ccn23)cc1` [Example 34, (4-methoxy-benzyl)-[7-methyl-2-(5-phenylethynyl-thiophen-2-yl)-imidazo[1,2-a]pyrimidin-3-yl]-amine], for which the inhibition at 10 µM stood at 98%.

Take `Cc1cccc(C#Cc2cccc(-c3nc4ncccn4c3NC3CCCC3)c2)n1` [Example 259, N-cyclopentyl-2-(3-((6-methylpyridin-2-yl)ethynyl)phenyl)imidazo[1,2-a]pyrimidin-3-amine]: the inhibition at 10 µM came out at 82%.

The assay is the same for the next values; noted with them: 3[H]-MPEP binding.
As for `COc1ccccc1C#Cc1ccc(-c2nc3cnccn3c2NC(C)(C)C)s1` [Example 112, N-tert-butyl-2-(5-((2-methoxyphenyl)ethynyl)thiophen-2-yl)imidazo[1,2-a]pyrazin-3-amine hydrochloride], the pIC50 is 5.12.

`C(#Cc1ccc(-c2nc3cnccn3c2N2CCCCC2)s1)c1ccccc1` [Example 88, 2-(5-(phenylethynyl)thiophen-2-yl)-3-(piperidin-1-yl)imidazo[1,2-a]pyrazine] had a pIC50 of 5.85.

On to `CC(C)(C)Nc1c(-c2ccc(C#Cc3ccccc3[N+](=O)[O-])s2)nc2cnccn12` [Example 166, N-tert-butyl-2-(5-((2-nitrophenyl)ethynyl)thiophen-2-yl)imidazo[1,2-a]pyrazin-3-amine], for which the pIC50 was 4.95.

For `CC(C)(C)Nc1c(-c2ccc(C#Cc3cccc(O)c3)s2)nc2cnccn12` [Example 122, 3-((5-(3-(tert-butylamino)imidazo[1,2-a]pyrazin-2-yl)thiophen-2-yl)ethynyl)phenol], the pIC50 was 6.89.

The molecule `CC(C)(C)CC(C)(C)Nc1c(-c2ccc(C#Cc3ccncc3)s2)nc2cnccn12` [Example 61, [2-(5-pyridin-4-ylethynyl-thiophen-2-yl)-imidazo[1,2-a]pyrazin-3-yl]-(1,1,3,3-tetramethyl-butyl)-amine] gave a pIC50 of 7.37.

Regarding `CC(C)(C)Nc1c(-c2ccc(C#Cc3ncccc3N)s2)nc2ccccn12` [Example 326, {2-[5-(3-amino-pyridin-2-ylethynyl)-thiophen-2-yl]-imidazo[1,2-a]pyridin-3-yl}-tert-butyl-amine], the pIC50 was 7.41.

Regarding `CC(C)(C)Nc1c(-c2ccc(C#Cc3ccncc3)s2)nc2ccccn12` [Example 132, N-tert-butyl-2-(5-(pyridin-4-ylethynyl)thiophen-2-yl)imidazo[1,2-a]pyridin-3-amine hydrochloride], the negative logarithm of the IC50 (pIC50) is 7.80.

`COC(=O)CN(CC(=O)OC)c1c(-c2ccc(C#Cc3ccccc3)s2)nc2cnccn12` [Example 73, {(methoxycarbonylmethyl)-[2-(5-phenylethynyl-thiophen-2-yl)-imidazo[1,2-a]pyrazin-3-yl]-amino}-acetic acid methyl ester] gave a pIC50 of 5.66.

For the molecule `Cc1cccnc1C#Cc1ccc(-c2nc3ccccn3c2NC(C)(C)C)s1` [Example 351, N-tert-butyl-2-(5-((3-methylpyridin-2-yl)ethynyl)thiophen-2-yl)imidazo[1,2-a]pyridin-3-amine hydrochloride], the pIC50 was 6.64.

With `CC(C)(C)Nc1c(-c2ccc(C#Cc3ccccc3)s2)nc2c(C(=O)O)nccn12` [Example 120, 3-(tert-butylamino)-2-(5-(phenylethynyl)thiophen-2-yl)imidazo[1,2-a]pyrazine-8-carboxylic acid], the negative logarithm of the IC50 (pIC50) was 5.44.

Molecule `CC(C)(C)Nc1c(-c2ccc(C#Cc3ccccc3)s2)nc2ccc3ccccc3n12` [Example 115, N-tert-butyl-2-(5-(phenylethynyl)thiophen-2-yl)imidazo[1,2-a]quinolin-1-amine] had a pIC50 of 5.11.
